Source: US12377104B1, “Methods for treating a fatty liver disease” (Madrigal Pharmaceuticals, Inc., priority 2024, dated 2025)
Values joined by “and” are separate entries in the source; they are usually repeats but may differ in a detail not shown here. Equal entries are not always repeated.

System: adults with biopsy-confirmed NASH
Experiment: MAESTRO-NASH: lipids, lipoproteins and lipid particles
Assay type: in vivo, human
Settings: 100 mg; for ApoB, Least Squares Mean % CFB / ApoB, Least Squares Mean % CFB Difference from PBO / LDL-C, Least Squares Mean % CFB / LDL-C, Least Squares Mean % CFB Difference from PBO: baseline LDL-C >100 mg/dL; for Lp(a), LS mean % CFB / Lp(a), LS mean % CFB difference from PBO: baseline Lp(a) >10 nmol/L; for Triglycerides, LS mean % CFB / Triglycerides, LS mean % CFB difference from PBO: baseline triglycerides >150 mg/dL
Method: Within the study, we provided analyses based on an analysis of covariance (ANCOVA) model after having performed single imputation for LDL-C as described in the statistical analysis plan (SAP). The ANCOVA model estimated least-squares means using treatment and baseline LDL-C as covariate.
To this end, the Week 24 LDL-C assessment and assessments at any visit in which LDL-C is measured (Weeks 4, 12, 16, 20, 24, 28, 32, 36, 40, 44, 48, and 52) that has been impacted by kit shortage at the prior visit (unavailability of […] (IP) during the 4 weeks preceding the visit due to the COVID-19 pandemic as indicated on the electronic case report form (eCRF)), were considered missing and were imputed from an unaffected assessment at surrounding visits or using data from subjects unaffected by this intercurrent event as described in Section 11.2 of the SAP. In summary, single imputation utilizing adjacent and valid […] measurements were imputed.
For missing lipid data that are still missing after the single imputation approach described, those missing lipid data were imputed using the non-missing lipid values (including the singly imputed data) based on missing at random (MAR)-based (MI). When applying the MAR-based […], data were imputed separately by randomized treatment group and baseline stratification factors.

## CC(C)c1cc(Oc2c(Cl)cc(-n3nc(C#N)c(=O)[nH]c3=O)cc2Cl)n[nH]c1=O [Resmetirom, 2-(3,5-dichloro-4-((5-isopropyl-6-oxo-1,6-dihydropyridazin-3-yl)oxy)phenyl)-3,5-dioxo-2,3,4,5-tetrahydro-1,2,4-triazine-6-carbonitrile]
Wk 24
  Apolipoprotein B level, difference from placebo: −20.2 percentage points
  Apolipoprotein B level, least-squares mean percent change from baseline: −19.8 ± 1.3%
  LDL cholesterol level, difference from placebo: −16.4 percentage points
  LDL cholesterol level, least-squares mean percent change from baseline: −16.3% and −16.3 ± 1.7%
  Lipoprotein(a) level, difference from placebo: −35.1 percentage points
  Triglyceride level, difference from placebo: −19.1 percentage points
Wk 24, baseline lipoprotein(a) >10 nmol per liter
  Lipoprotein(a) level, least-squares mean percent change from baseline: −35.9 ± 4.0%
Wk 24, baseline triglyceride >150 mg per deciliter
  Triglyceride level, least-squares mean percent change from baseline: −21.7 ± 4.3%
Week 24
  ApoB, LS mean % CFB: -19.8%
  ApoB, LS mean % CFB difference from PBO: −20.2%
  ApoCIII, Least Squares Mean % CFB: −14.1%
  ApoCIII, Least Squares Mean % CFB Difference from PBO: −22.2%
  HDL-C, Least Squares Mean % CFB: 2.9%
  HDL-C, Least Squares Mean % CFB Difference from PBO: 1.2%
  LDL-C, LS mean % CFB: −16.3%
  LDL-C, LS mean % CFB difference from PBO: −16.4%
  Non-HDL-C, Least Squares Mean % CFB: −17.7%
  Non-HDL-C, Least Squares Mean % CFB Difference from PBO: −17.9%
  ApoB, Least Squares Mean % CFB: −22.1%
  ApoB, Least Squares Mean % CFB Difference from PBO: −18.4%
  LDL-C, Least Squares Mean % CFB: −20.6%
  LDL-C, Least Squares Mean % CFB Difference from PBO: −14.7%
Week 52
  ApoCIII, Least Squares Mean % CFB: −17.1%
  ApoCIII, Least Squares Mean % CFB Difference from PBO: −26.9%
  HDL particle size, Least Squares Mean % CFB: 0.40%
  HDL particle size, Least Squares Mean % CFB Difference from PBO: 0.10%
  HDL particles, Least Squares Mean % CFB: 2.3%
  HDL particles, Least Squares Mean % CFB Difference from PBO: 0.69%
  HDL-C, Least Squares Mean % CFB: 4.6%
  HDL-C, Least Squares Mean % CFB Difference from PBO: 2.0%
  LDL particle size, Least Squares Mean % CFB: −0.35%
  LDL particle size, Least Squares Mean % CFB Difference from PBO: −0.39%
  LDL particles, Least Squares Mean % CFB: −20.0%
  LDL particles, Least Squares Mean % CFB Difference from PBO: −19.4%
  Large HDL particles, Least Squares Mean % CFB: 4.5%
  Large HDL particles, Least Squares Mean % CFB Difference from PBO: −7.7%
  Large LDL particles, Least Squares Mean % CFB: 55.6%
  Large LDL particles, Least Squares Mean % CFB Difference from PBO: −30.8%
  Large VLDL and chylomicron particles, Least Squares Mean % CFB: −9.1%
  Large VLDL and chylomicron particles, Least Squares Mean % CFB Difference from PBO: −20.2%
  Medium HDL particles, Least Squares Mean % CFB: 130.2%
  Medium HDL particles, Least Squares Mean % CFB Difference from PBO: 65.2%
  Medium VLDL particles, Least Squares Mean % CFB: −27.4%
  Medium VLDL particles, Least Squares Mean % CFB Difference from PBO: −143.2%
  Non-HDL-C, Least Squares Mean % CFB: −22.1%
  Non-HDL-C, Least Squares Mean % CFB Difference from PBO: −21.7%
  Small LDL particles, Least Squares Mean % CFB: 6.6%
  Small LDL particles, Least Squares Mean % CFB Difference from PBO: −15.0%
  Small VLDL particles, Least Squares Mean % CFB: 26.3%
  Small VLDL particles, Least Squares Mean % CFB Difference from PBO: −15.3%
  VLDL and chylomicron particles, Least Squares Mean % CFB: −20.2%
  VLDL and chylomicron particles, Least Squares Mean % CFB Difference from PBO: −28.4%
  VLDL and chylomicron triglycerides, Least Squares Mean % CFB: −17.9%
  VLDL and chylomicron triglycerides, Least Squares Mean % CFB Difference from PBO: −22.8%
  VLDL particle size, Least Squares Mean % CFB: 3.4%
  VLDL particle size, Least Squares Mean % CFB Difference from PBO: 1.4%
  ApoB, Least Squares Mean % CFB: −26.6%
  ApoB, Least Squares Mean % CFB Difference from PBO: −20.1%
  LDL-C, Least Squares Mean % CFB: −27.1%
  LDL-C, Least Squares Mean % CFB Difference from PBO: −17.5%
Week 24
  Lp(a), LS mean % CFB: −35.9%
  Lp(a), LS mean % CFB difference from PBO: 35.1%
  Triglycerides, LS mean % CFB: −21.7%
  Triglycerides, LS mean % CFB difference from PBO: −19.1%
Week 52
  ApoB, LS mean % CFB: -22.3%
  ApoB, LS mean % CFB difference from PBO: −22.9%
  LDL-C, LS mean % CFB: −19.5%
  LDL-C, LS mean % CFB difference from PBO: −19.0%
  Lp(a), LS mean % CFB: −37.5%
  Lp(a), LS mean % CFB difference from PBO: −32.4%
  Triglycerides, LS mean % CFB: −28.4%
  Triglycerides, LS mean % CFB difference from PBO: −24.9%
